Tests used:
Assay in all cases: relative viability (nuclei count vs DMSO), 5 days (fraction); higher = more cells survive
VX-11e + Olaparib = compound: CC1=CN=C(N=C1C2=CNC(=C2)C(=O)N[C@H](CO)C3=CC(=CC=C3)Cl)NC4=C(C=C(C=C4)F)Cl [VX-11e] + O=C(c1cc(Cc2n[nH]c(=O)c3ccccc23)ccc1F)N1CCN(C(=O)C2CC2)CC1 [Olaparib] (partner 8 µM)
In short: (§1)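 The day after seeding in 1536-well plates, lung cancer cell lines were treated by pin tool with a single drug, or with a fixed anchor-drug dose together with five library-drug doses (not always all listed) in √10 steps. After 5 days, a combined fix-and-stain solution (final 0.05% Triton X-100, 1% formaldehyde, 1 ug/ml Hoechst) was added. Nuclei counted on 4× images gave relative viability as treated counts over vehicle counts, reported as the median of duplicate plates.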

VX-11e + Bortezomib = compound: CC1=CN=C(N=C1C2=CNC(=C2)C(=O)N[C@H](CO)C3=CC(=CC=C3)Cl)NC4=C(C=C(C=C4)F)Cl [VX-11e] + CC(C)C[C@H](NC(=O)[C@H](Cc1ccccc1)NC(=O)c1cnccn1)B(O)O [Bortezomib] (partner 0.002 µM)
In short: as §1

VX-11e + Pemetrexed = compound: CC1=CN=C(N=C1C2=CNC(=C2)C(=O)N[C@H](CO)C3=CC(=CC=C3)Cl)NC4=C(C=C(C=C4)F)Cl [VX-11e] + Nc1nc2[nH]cc(CCc3ccc(C(=O)N[C@@H](CCC(=O)O)C(=O)O)cc3)c2c(=O)[nH]1 [Pemetrexed] (partner 0.2 µM)
In short: as §1

VX-11e + Alpelisib = compound: CC1=CN=C(N=C1C2=CNC(=C2)C(=O)N[C@H](CO)C3=CC(=CC=C3)Cl)NC4=C(C=C(C=C4)F)Cl [VX-11e] + Cc1nc(NC(=O)N2CCC[C@H]2C(N)=O)sc1-c1ccnc(C(C)(C)C(F)(F)F)c1 [Alpelisib] (partner 2 µM)
In short: as §1

Cell Line	relative viability (VX-11e + Olaparib; first compound 0.04 µM)	relative viability (VX-11e + Olaparib; first compound 0.1265 µM)	relative viability (VX-11e + Olaparib; first compound 0.4 µM)	relative viability (VX-11e + Olaparib; first compound 1.265 µM)	relative viability (VX-11e + Olaparib; first compound 4 µM)	relative viability (VX-11e + Bortezomib; first compound 0.04 µM)	relative viability (VX-11e + Bortezomib; first compound 0.1265 µM)	relative viability (VX-11e + Bortezomib; first compound 0.4 µM)	relative viability (VX-11e + Bortezomib; first compound 1.265 µM)	relative viability (VX-11e + Bortezomib; first compound 4 µM)	relative viability (VX-11e + Pemetrexed; first compound 0.04 µM)	relative viability (VX-11e + Pemetrexed; first compound 0.1265 µM)	relative viability (VX-11e + Pemetrexed; first compound 0.4 µM)	relative viability (VX-11e + Pemetrexed; first compound 1.265 µM)	relative viability (VX-11e + Pemetrexed; first compound 4 µM)	relative viability (VX-11e + Alpelisib; first compound 0.04 µM)	relative viability (VX-11e + Alpelisib; first compound 0.1265 µM)	relative viability (VX-11e + Alpelisib; first compound 0.4 µM)	relative viability (VX-11e + Alpelisib; first compound 1.265 µM)	relative viability (VX-11e + Alpelisib; first compound 4 µM)
LC-2-ad	0.713	0.669	0.746	0.673	0.687	1.13	0.962	0.894	0.403	0.841	0.277	0.247	0.285	0.239	0.243	0.913	0.867	0.778	0.714	0.585
LCLC-97TM1	0.432	0.363	0.29		0.103	0.591	0.675	0.943	0.339	0.107	0.183	0.14	0.243		0.171	0.285	0.253		0.192	0.12
LCLC-103H	0.787	0.748	0.719	0.638	0.667	1.07	1.11	1.03	0.658	0.917	0.442	0.437	0.53	0.417	0.493	1.06	0.905	0.861	0.828	0.819
LOU-NH91	0.887	0.884		0.901	0.839	0.494	0.502		0.486	0.457	0.448	0.373		0.367	0.358	0.692	0.689		0.691	0.538
LU99A	0.248	0.247	0.298	0.226	0.221	0.965	0.984	0.769	0.284	0.239	0.184	0.138	0.201	0.182	0.188	0.423	0.38	0.574	0.209	0.175
LXF-289	1.15	0.997		1.01	0.736	1.07	0.96	0.764	0.734	0.665	0.974	0.911		0.803	0.706	1.05	0.962	0.961	0.942	0.695
NCI-H23	0.292	0.366	0.359	0.324	0.186	0.911	0.81	0.25	0.935	0.367	0.517	0.583	0.214	0.312	0.222	0.575	0.53	0.435	0.384	0.242
NCI-H322M	0.705	0.71	0.525	0.752	0.54	1.08		1.24	1.09	0.987	0.623	0.658	0.641	0.497	0.594	0.709		0.82	0.729	0.53
NCI-H441	0.553	0.572		0.702	0.591	0.54	0.436		0.963	0.432	0.27	0.253		0.259	0.238	0.804	0.709		0.977	0.633

— the supplement of paper PMC10307832
